US6987112B2, “Organic compound having cyano group and insecticides/miticides” (Nippon Soda Co., Ltd., priority 2000, dated 2006)
Like-named read-outs stand apart in the source and are kept apart here.

What was measured:
[1] = test system: susceptible Citrus red mite; experiment: Effects on Citrus red mite (spray on adult females on Citrus leaf in Petri dish); assay type: in vivo; conditions: Panonychus citri, read-out: percentage mortality
Procedure: Eight adult females of susceptible Citrus red mite were inoculated on the surface of Citrus leaf placed in a glass Petridish. […] The solution was sprayed on the mites using a rotary spraying tower up to the fixed volume. […] The test was carried out in duplicate.

[2] = test system: Cotton Aphids; experiment: Efficacy on cotton aphids (spray on 1st instar nymphs on cucumber leaves); assay type: in vivo; conditions: 125 ppm spray, 25° C., 65% RH, five days later, duplicate

## Cc1cc(Cl)ccc1N=CN(C)C [chlordimeform]
[1]
  mortality at 125 ppm: 13%

## Cn1nc(C(F)(F)F)c(C(OC(=O)C(C)(C)C)=C(C#N)Oc2ccc(Cl)cc2)c1Cl [Compound No. 3-9, β-(5-chloro-1-methyl-3-trifluoromethylpyrazole-4-yl)-α-(4-chlorophenoxy)-β-pivaloyloxyacrylonitrile]
[1]; 125 ppm spray (wettable powder), adult females on Citrus leaf, 25° C., 65% RH, third day after spraying, duplicate
  mortality at 125 ppm: 100%
[2]; 120 h, read-out: percentage mortality
  mortality at 125 ppm: 100%

## Cc1nc(N(C)C)nc(OC(=O)N(C)C)c1C [pyrimicarb]
[2]
  percentage mortality: 9%
